From PMC3720801, “A Proline-Hinge Alters the Characteristics of the Amphipathic α-helical AMPs” (PLoS ONE, 2013)
Converted amounts (≈) assume the structure as drawn. Peptide text beside a SMILES is read from it.

Legend:
[1] = tested on: Escherichia coli (KCTC 1682); conditions: broth microdilution, 1% bactopeptone, 5×10^3 CFU/ml, 10 h at 37°C, OD 620 nm, triplicate
[2] = tested on: Candida albicans (KCTC 7270); conditions: MTT assay, YPD pH 5.5, 24 h at 28°C, absorbance 570 nm, triplicate
[3] = tested on: Proteus vulgaris (KCTC 2433); conditions: broth microdilution, 1% bactopeptone, 5×10^3 CFU/ml, 10 h at 37°C, OD 620 nm, triplicate
[4] = tested on: Bacillus subtilis (KCTC 1918); conditions: broth microdilution, 1% bactopeptone, 5×10^3 CFU/ml, 10 h at 37°C, OD 620 nm, triplicate
[5] = tested on: Pseudomonas aeruginosa (KCTC 1637); conditions: broth microdilution, 1% bactopeptone, 5×10^3 CFU/ml, 10 h at 37°C, OD 620 nm, triplicate
[6] = tested on: Trichosporon beigelii (KCTC 7707); assay: Antifungal MTT assay MIC; type: cell-based; conditions: YPD pH 5.5, 24 h at 28°C, absorbance 570 nm, triplicate
[7] = tested on: Staphylococcus epidermidis (KCTC 1917); conditions: broth microdilution, 1% bactopeptone, 5×10^3 CFU/ml, 10 h at 37°C, OD 620 nm, triplicate
S. aureus (KCTC 1621) = conditions: broth microdilution, 1% bactopeptone, 5×10^3 CFU/ml, 10 h at 37°C, OD 620 nm, triplicate
[8] = tested on: Salmonella typhimurium (KCTC 1926); conditions: broth microdilution, 1% bactopeptone, 5×10^3 CFU/ml, 10 h at 37°C, OD 620 nm, triplicate
[9] = tested on: Saccharomyces cerevisiae (KCTC 7296); conditions: MTT assay, YPD pH 5.5, 24 h at 28°C, absorbance 570 nm, triplicate
[10] = In vitro binding assay to insoluble polysaccharide; conditions: 100 µg polysaccharide + 5 µg peptide, room temperature 1 h, SDS-PAGE
Protocol: Chitin (β-1,4-N-acetyl-D-glucosamine), chitosan (β-1,4-D-glucosamine), cellulose (β-1,4-glucan), curdlan (β-1,3-glucan) and peptidoglycan (β-1,4-glycosidic linkage between N-acetyl muramic and N-acetylglucosamine) were used for the in vitro binding assay of Anal 3-Pro. One hundred µg of each insoluble polysaccharide was added in 5 µg of purified Anal 3-Pro and incubated at room temperature with mild agitation for 1 h. The mixture was centrifuged (10,000×g for 2 min) and the pellet was washed three times with 1 ml of washing buffer (10 mM Tris, pH 7.5, 500 mM NaCl, 0.02% Tween 20). The peptide bound to insoluble polysaccaharide was detached by adding SDS-polyacrylamide gel electrophoresis sample buffer.

[11] = tested on: plasmid DNA (pBluescript SK(+)); assay: DNA gel retardation; type: binding; conditions: plasmid DNA 100 ng, 10 min at 37°C, agarose gel
[12] = FITC-dextran leakage from liposomes; conditions: 10 µM peptide, peptide/lipid 1/10, 25°C, FITC fluorescence
Protocol: FITC-labeled dextrans (FD-4, 10, 20, 40, 70 and 500) were utilized as model cytoplasmic components. FD (fluorescein isothiocyanate dextrans), with average molecular masses of 4, 10, 20, 40, 70, and 500 kDa were all purchased from the Sigma Chemical Co. (St. Louis, MO). FD-entrapping liposomes (unilamellar vesicles) with different lipid compositions were prepared using the reverse-phase evaporation method, after which the concentrations of the FD-entrapping vesicles were determined in triplicate using a phosphorus assay. To prepare FD-entrapping liposomes, a buffer solution (buffer II: PBS) containing 2 mg/ml of the FD was sonicated for 30 min with a lipid solution in chloroform (20 mg/ml) on ice. The chloroform was then gradually removed using a rotary vacuum evaporator at 25°C, resulting first in the formation of a viscous gel and then a liposome suspension. Buffer (2 ml) was added, and the suspension was evaporated further to remove the remaining solvent. The liposome suspensions were then centrifuged and washed for several cycles at 22,000×gav for 30 min in order to remove unentrapped-FD. The washed liposomes were extruded 30 times through polycarbonate filters (two stacked 0.4-µm pore size filters) using an Avanti Mini-Extruder (Avanti Polar Lipids inc., Alabaster, AL) to obtain liposomes of homogeneous size (∼400 nm). Aliquots of the peptide solutions at appropriate concentrations were incubated with a suspension of FD-loaded liposomes (100 µM) for 1–20 min at 25°C, and were then centrifuged for 30 min at 22,000×g. The supernatants were recovered and the leakage was recorded by monitoring the FITC fluorescence intensity (excitation wavelength: 494 nm, emission wavelength: 520 nm). 100% leakage was achieved by addition of Triton X-100 to a final concentration of 1 mM. The percent leakage value was then plotted.

T. begellii = assay: Confocal laser-scanning microscopy, localization of FITC-conjugated peptides; type: cell-based; conditions: 15 min at 28°C
C. albicans cells = assay: Flow cytometric analysis of cell membrane permeability (PI uptake); type: cell-based, Candida albicans; conditions: 30 min on ice, 12.5 µM Anal 3 or melittin, peptides at MIC
Protocol: Membrane integrity following peptide treatment was evaluated using flow cytometry. Anal 3, Anal 3-Pro or melittin (control) was added to C. albicans cells (2×10^5 cells in YPD media) to the MIC, after which cell membrane permeabilization was detected by incubating the treated cells in 50 µg/ml propidium iodide (PI) for 30 min at 4°C. After removing the unbound dye by extensively washing with PBS, the cells were subjected to flow cytometric analysis using a FACScalibur flow cytometer (Becton Dickinson, San Jose, CA). PI fluorescence was monitored in the FL2-H channel.

Compound | MIC G(−) EC [1] [µM] | MIC Yeast CA [2] [µM] | MIC G(−) PV [3] [µM] | MIC G(+) BS [4] [µM] | MIC G(−) PA [5] [µM] | MIC Yeast TB [6] [µM] | MIC G(+) SE [7] [µM] | MIC G(+) SA (S. aureus (KCTC 1621)) [µM] | MIC G(−) ST [8] [µM] | MIC Yeast SC [9] [µM] | binding to chitin [10] | amount of peptide at which retardation of the pDNA band was detected [11] [µg] | release of FD4 from PC/CH liposomes [12] [%] | release of FD4 from PE/PG liposomes [12] [%] | release of larger FD markers from PC/CH vesicles [12] | release of larger FD markers from PE/PG liposomes [12] | intracellular localization of FITC-conjugated peptide (T. begellii) | PI influx (membrane permeabilization), in words (C. albicans cells)
CC[C@H](C)[C@H](NC(=O)[C@H](CCCCN)NC(=O)[C@H](CO)NC(=O)[C@H](Cc1ccccc1)NC(=O)[C@H](CC(C)C)NC(=O)[C@H](CCCCN)NC(=O)[C@H](CCC(=O)O)NC(=O)[C@H](CC(C)C)NC(=O)[C@H](CCCNC(=N)N)NC(=O)[C@H](CCCCN)NC(=O)[C@H](Cc1ccccc1)NC(=O)[C@@H](NC(=O)[C@H](CCCCN)NC(=O)[C@H](CCCCN)NC(=O)[C@H](C)N)C(C)C)C(=O)N[C@@H](CCC(N)=O)C(=O)N[C@@H](CC(N)=O)C(=O)N[C@@H](Cc1c[nH]c2ccccc12)C(=O)N[C@@H](CCCCN)C(N)=O [Anal 1] (H-AKKVFKRLEKLFSKIQNWK-NH2) | 1.56 (≈ 3.73 µg/mL) | 12.5 (≈ 29.9 µg/mL) | 1.56 (≈ 3.73 µg/mL) | 1.56 (≈ 3.73 µg/mL) | 6.25 (≈ 14.9 µg/mL) | 6.25 (≈ 14.9 µg/mL) | 0.78 (≈ 1.86 µg/mL) | 3.13 (≈ 7.48 µg/mL) | 0.39 (≈ 0.932 µg/mL) | 12.5 (≈ 29.9 µg/mL) | – | – | – | – | – | – | – | –
CC[C@H](C)[C@H](NC(=O)[C@H](CCCCN)NC(=O)[C@H](CO)NC(=O)[C@H](Cc1ccccc1)NC(=O)[C@H](CC(C)C)NC(=O)[C@H](CCCCN)NC(=O)[C@H](CCC(=O)O)NC(=O)[C@H](CC(C)C)NC(=O)[C@H](CCCNC(=N)N)NC(=O)[C@H](CCCCN)NC(=O)[C@H](Cc1ccccc1)NC(=O)[C@@H](NC(=O)[C@H](CCCCN)NC(=O)[C@H](CCCCN)NC(=O)[C@H](C)N)C(C)C)C(=O)N[C@@H](Cc1c[nH]c2ccccc12)C(=O)N[C@@H](CC(N)=O)C(=O)N[C@@H](CC(=O)O)C(=O)N[C@@H](CCCCN)C(N)=O [Anal 2] (H-AKKVFKRLEKLFSKIWNDK-NH2) | 1.56 (≈ 3.71 µg/mL) | 12.5 (≈ 29.7 µg/mL) | 1.56 (≈ 3.71 µg/mL) | 1.56 (≈ 3.71 µg/mL) | 6.25 (≈ 14.9 µg/mL) | 6.25 to 12.5 | 1.56 (≈ 3.71 µg/mL) | 3.13 (≈ 7.44 µg/mL) | 0.78 (≈ 1.85 µg/mL) | 12.5 (≈ 29.7 µg/mL) | – | – | – | – | – | – | – | –
CC[C@H](C)[C@H](NC(=O)[C@H](CCCCN)NC(=O)[C@H](CO)NC(=O)[C@H](Cc1ccccc1)NC(=O)[C@H](CC(C)C)NC(=O)[C@H](CCCCN)NC(=O)[C@H](CCC(=O)O)NC(=O)[C@H](CC(C)C)NC(=O)[C@H](CCCNC(=N)N)NC(=O)[C@H](CCCCN)NC(=O)[C@H](Cc1ccccc1)NC(=O)[C@@H](NC(=O)[C@H](CCCCN)NC(=O)[C@H](CCCCN)NC(=O)[C@H](C)N)C(C)C)C(=O)N[C@@H](Cc1c[nH]c2ccccc12)C(=O)N[C@@H](CC(N)=O)C(=O)N[C@@H](Cc1c[nH]c2ccccc12)C(=O)N[C@@H](CCCCN)C(N)=O [Anal 3] (H-AKKVFKRLEKLFSKIWNWK-NH2) | 0.78 (≈ 1.91 µg/mL) | 6.25 (≈ 15.3 µg/mL) | 1.56 (≈ 3.82 µg/mL) | 0.78 (≈ 1.91 µg/mL) | 3.13 (≈ 7.67 µg/mL) | 3.13 (≈ 7.67 µg/mL) | 0.78 (≈ 1.91 µg/mL) | 1.56 (≈ 3.82 µg/mL) | 0.39 (≈ 0.955 µg/mL) | 3.13 to 6.25 | – | – | – | – | – | – | – | –
CC[C@H](C)[C@H](NC(=O)[C@H](CCCCN)NC(=O)[C@H](CO)NC(=O)[C@H](Cc1ccccc1)NC(=O)[C@H](CO)NC(=O)[C@H](CCCCN)NC(=O)[C@H](CCC(=O)O)NC(=O)[C@H](CC(C)C)NC(=O)[C@H](CCCNC(=N)N)NC(=O)[C@H](CCCCN)NC(=O)[C@H](Cc1ccccc1)NC(=O)[C@@H](NC(=O)[C@H](CCCCN)NC(=O)[C@H](CCCCN)NC(=O)[C@H](C)N)C(C)C)C(=O)N[C@@H](CCC(N)=O)C(=O)N[C@@H](CC(N)=O)C(=O)N[C@@H](CC(=O)O)C(=O)N[C@@H](CCCCN)C(N)=O [Anal 4] (H-AKKVFKRLEKSFSKIQNDK-NH2) | 12.5 (≈ 28.7 µg/mL) | 50 to 100 | 6.25 (≈ 14.3 µg/mL) | 6.25 (≈ 14.3 µg/mL) | >12.5 | 50 (≈ 115 µg/mL) | 12.5 (≈ 28.7 µg/mL) | >12.5 | 1.56 (≈ 3.58 µg/mL) | 50 (≈ 115 µg/mL) | – | – | – | – | – | – | – | –
CC[C@H](C)[C@H](NC(=O)[C@H](CCCCN)NC(=O)[C@H](CO)NC(=O)[C@H](Cc1ccccc1)NC(=O)[C@H](CC(C)C)NC(=O)[C@H](CCCCN)NC(=O)[C@H](CCC(=O)O)NC(=O)[C@H](CC(C)C)NC(=O)[C@H](CCCNC(=N)N)NC(=O)[C@H](CCCCN)NC(=O)[C@H](CO)NC(=O)[C@@H](NC(=O)[C@H](CCCCN)NC(=O)[C@H](CCCCN)NC(=O)[C@H](C)N)C(C)C)C(=O)N[C@@H](CCC(N)=O)C(=O)N[C@@H](CC(N)=O)C(=O)N[C@@H](CC(=O)O)C(=O)N[C@@H](CCCCN)C(N)=O [Anal 5] (H-AKKVSKRLEKLFSKIQNDK-NH2) | 6.25 (≈ 14.1 µg/mL) | 100 (≈ 226 µg/mL) | 3.13 (≈ 7.07 µg/mL) | 3.13 (≈ 7.07 µg/mL) | >12.5 | 50 (≈ 113 µg/mL) | 6.25 (≈ 14.1 µg/mL) | >12.5 | 3.13 (≈ 7.07 µg/mL) | 50 to 100 | – | – | – | – | – | – | – | –
CC[C@H](C)[C@H](NC(=O)[C@H](CCCCN)NC(=O)[C@H](CO)NC(=O)[C@H](Cc1ccccc1)NC(=O)[C@H](CC(C)C)NC(=O)[C@H](CCCCN)NC(=O)[C@H](CCC(=O)O)NC(=O)[C@H](CC(C)C)NC(=O)[C@H](CCCNC(=N)N)NC(=O)[C@H](CCCCN)NC(=O)[C@H](Cc1ccccc1)NC(=O)[C@@H](NC(=O)[C@H](CCCCN)NC(=O)[C@H](CCCCN)NC(=O)[C@H](C)N)C(C)C)C(=O)N[C@@H](CCC(N)=O)C(=O)N[C@@H](CC(N)=O)C(=O)N[C@@H](CC(=O)O)C(=O)N[C@@H](CCCCN)C(N)=O [HP (2–20), reference compound] (H-AKKVFKRLEKLFSKIQNDK-NH2) | 6.25 (≈ 14.5 µg/mL) | 25 (≈ 58 µg/mL) | 3.13 (≈ 7.26 µg/mL) | 1.56 (≈ 3.62 µg/mL) | 12.5 (≈ 29 µg/mL) | 12.5 to 25 | 3.13 (≈ 7.26 µg/mL) | 12.5 (≈ 29 µg/mL) | 0.78 (≈ 1.81 µg/mL) | 25 (≈ 58 µg/mL) | – | – | – | – | – | – | – | –
buforin II | – | – | – | – | – | – | – | – | – | – | recognized only chitin | 1 | 3.6 | 5 | unable to release any of the larger markers | unable to release any of the larger markers | distributed throughout the fungal cells | –
melittin: antimicrobial peptide known to target the cell membrane | – | – | – | – | – | – | – | – | – | – | – | – | – | – | – | – | – | large influx of PI
